Measured values reported in patent US10265310B2, “6-membered cyclic amines or lactames substituted with urea and phenyl” (GRÜNENTHAL GMBH, priority 2016, dated 2019).

Tests used:
[1] = target: FPR2 (Homo sapiens (Human), UniProt P25090); test: Agonistic activity (calcium FLIPR) in hFPR2-Aq-CHO cells; format: cell-based; settings: FLIPR Calcium 5 dye fluorescence, agonistic response
Experimental: (§1) Cells (hFPR1-Gα15-CHO or hFPR2-Aq-CHO) are suspended in 10 mL of respective complete medium (F12(1×) HAM media; 10% HI-FBS; 0.1 mg/ml Hygromycin B and 0.2 mg/ml Zeocin [for hFPR1 only]; 0.4 mg/mL Geneticin and 0.25 mg/ml Zeocin [for hFPR2-Aq only]) and viability is checked using Trypan Blue exclusion. After washing, the cells are plated at 10,000 cells per well in 40 μL complete medium in a 384-well sterile clear bottom black plate and incubated in a 5% CO2 incubator at 37° C. for 18 hours. Plating media is removed from each well by decanting and gentle tapping before 30 μL of 0.5× Calcium 5 dye solution (0.5×FLIPR Calcium 5 dye (Molecular devices, R8186)); HBSS; 20 mM HEPES; 2.5 mM Probenecid; 0.025% Pluronic F-127; pH adjusted to 7.4) is added to each well and the plate is then incubated at 37° C. for 30 minutes. For the assay the plate is equilibrated at room temperature for 10 minutes before placing it in the FLIPR. Compounds are dissolved in DMSO and serially diluted over an 11 point half log (3.16 fold) dilution (2 mM to 20 nM). Compounds are then diluted 1:50 in assay buffer (HBSS; 20 mM HEPES; 2.5 mM Probenecid; 0.05% gelatin; 0.1% BSA; pH adjusted to 7.4) just before performing the assay. Compounds are finally added to the respective wells of the cell plate (final assay concentration 10 μM to 100 pM) using the FLIPR (e.g. FLIPR-Tetra, Molecular Devices) and fluorescence readings are captured for 5 minutes. The increase in fluorescence from the basal reading in the presence of the compounds is compared with that of the control wells (wells having no compound) to calculate the activity of the compounds. The EC50 values of the compounds can be determined using e.g. Graph pad Prism software.
(§2) Assay Method for Measuring Agonistic Activity of Compounds in hFPR1-Gα15-CHO and hFPR2-Aq-CHO Cell
(§3) Cryo-vial containing 6×10^6 cells (hFPR1-Gα15-CHO or hFPR2-Aq-CHO) was thawed in a 37° C. water bath. Cells were suspended in 10 ml of respective complete growth media (F12(1×) HAM media (Gibco; Cat#11765); 10% HI-FBS (Gibco; Cat#10082); 0.1 mg/ml Hygromycin B (Invitrogen; Cat#10687-010) [for hFPR1 only]; 0.2 mg/ml Zeocin (Invitrogen; Cat#R25001) [for hFPR1 only]; 0.4 mg/ml Geneticin (Gibco; Cat#10131) [for hFPR2-Aq only]; 0.25 mg/ml Zeocin (Invitrogen; Cat#R25001) [for hFPR2-Aq only]) in a 15 ml centrifuge tube. The cell viability was checked with the help of Trypan Blue dye. Upon washing the cells, those were plated in a 384-well sterile clear bottom black plate (Greiner Bioone Cat#781091) so that, each well contained 10,000 cells in 40 μl complete growth media. The plate was incubated in a 5% CO2 incubator at 37° C. for 18 hours.
(§4) Before assay on the next day, the cell plating media was removed from each well of the plate by decanting and gentle tapping. 30 μl, 0.11 of 0.5× Calcium 5 dye solution (0.5×FLIPR Calcium 5 dye (Molecular devices Cat# R8186); HBSS (Invitrogen; Cat#14025); 20 mM HEPES (Sigma; Cat#H0887); 2.5 mM Probenecid (Sigma; Cat#P8761); 0.025% Pluronic F-127 (Sigma; Cat#P2443); pH adjusted to 7.4) was added to each well. The plate was then incubated at 37° C. for 30 minutes. Following which the plate was equilibrated at room temperature for 10 minutes before placing it in a 384 well FLIPR for assay. Compounds were dissolved in DMSO and serially diluted following 11 point half log (3.16 fold) dilution with a starting concentration of 2 mM (Final assay concentration 10 μM). Aliquots of above mentioned each dilution was mixed with assay buffer (HBSS (Invitrogen; Cat#14025); 20 mM HEPES (Sigma; Cat#H0887); 2.5 mM Probenecid (Sigma; Cat#P8761); 0.05% gelatin (Sigma; Cat#G1890); 0.1% BSA (Sigma; Cat#A3059); pH adjusted to 7.4) just before performing the assay. Compounds were added to the respective wells of the assay ready cell plate with the help of the FLIPR (FLIPR Tetra) and fluorescence readings were captured for 5 minutes to measure any agonistic response of the compounds. […]

[2] = target: FPR1 (Homo sapiens (Human), UniProt P21462); test: Agonistic activity (calcium FLIPR) in hFPR1-Gα15-CHO cells; format: cell-based; settings: FLIPR Calcium 5 dye fluorescence, agonistic response
Experimental: as §1, §2, §3, §4

Chain of FPR2 (P25090 whole entry): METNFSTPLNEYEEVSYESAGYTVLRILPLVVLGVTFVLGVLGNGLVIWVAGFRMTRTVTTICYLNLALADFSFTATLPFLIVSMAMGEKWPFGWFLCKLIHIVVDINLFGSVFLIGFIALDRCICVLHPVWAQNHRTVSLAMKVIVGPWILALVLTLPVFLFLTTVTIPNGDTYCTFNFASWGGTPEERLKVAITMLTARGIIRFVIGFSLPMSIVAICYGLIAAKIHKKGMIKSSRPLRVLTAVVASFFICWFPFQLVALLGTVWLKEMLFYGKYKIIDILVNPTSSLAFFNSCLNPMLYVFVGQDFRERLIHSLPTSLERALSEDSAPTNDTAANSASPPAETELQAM
Chain of FPR1 (P21462 whole entry): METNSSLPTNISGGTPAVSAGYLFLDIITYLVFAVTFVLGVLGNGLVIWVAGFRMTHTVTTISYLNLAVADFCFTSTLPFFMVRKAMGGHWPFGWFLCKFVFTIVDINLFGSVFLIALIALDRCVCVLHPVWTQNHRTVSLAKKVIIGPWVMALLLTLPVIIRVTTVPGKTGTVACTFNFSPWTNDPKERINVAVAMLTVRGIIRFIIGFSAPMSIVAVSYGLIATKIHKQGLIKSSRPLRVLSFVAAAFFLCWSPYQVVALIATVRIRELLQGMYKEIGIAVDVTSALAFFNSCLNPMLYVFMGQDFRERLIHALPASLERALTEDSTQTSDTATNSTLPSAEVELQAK

| EC50 [1] [nM] | EC50 [2] [nM] | Structure (SMILES) |
| --- | --- | --- |
| 1 to 1000 | 1 to 1000 | COc1ccc([C@@H]2CCN(C(C)=O)C[C@H]2NC(=O)Nc2ccc(C(F)(F)F)nc2)cc1 (racemic) [Example 27, rac-trans-1-(1-acetyl-4-(4-methoxyphenyl)piperidin-3-yl)-3-(6-(trifluoromethyl)pyridin-3-yl)urea] |
| 1 to 1000 | 1 to 1000 | COc1ccc(C2CCN(C(C)=O)C[C@H]2NC(=O)Nc2ccc(C)nc2)cc1 (mixture of isomers) [Example 28, rac-trans-1-(1-acetyl-4-(4-methoxyphenyl)piperidin-3-yl)-3-(6-methylpyridin-3-yl)urea] |
| < 1 | 1 to 1000 | COc1cc(F)c([C@@H]2CC(=O)N(CC3CC3)C[C@H]2NC(=O)Nc2ccc(Cl)cc2)c(F)c1 (racemic) [Example 29, rac-trans-1-(4-chlorophenyl)-3-(1-(cyclopropylmethyl)-4-(2,6-difluoro-4-methoxyphenyl)-6-oxopiperidin-3-yl)urea] |
| < 1 | < 1 | COc1ccc([C@@H]2CCN(C(=O)CCO)C[C@H]2NC(=O)Nc2ccc(Cl)cc2)cc1 (racemic) [Example 30, rac-trans-1-(4-chlorophenyl)-3-(1-(3-hydroxypropanoyl)-4-(4-methoxyphenyl)piperidin-3-yl)urea] |
| < 1 | 1 to 1000 | COc1cc(F)c([C@@H]2CC(=O)N(CCO)C[C@H]2NC(=O)Nc2ccc(Cl)cc2)c(F)c1 (racemic) [Example 31, rac-trans-1-(4-chlorophenyl)-3-(4-(2,6-difluoro-4-methoxyphenyl)-1-(2-hydroxyethyl)-6-oxopiperidin-3-yl)urea] |
| < 1 | 1 to 1000 | COc1ccc([C@@H]2CC(=O)N(CCO)C[C@H]2NC(=O)Nc2ccc(Cl)cc2)cc1 (racemic) [Example 32, rac-trans-1-(4-chlorophenyl)-3-(1-(2-hydroxyethyl)-4-(4-methoxyphenyl)-6-oxopiperidin-3-yl)urea] |
| 1 to 1000 | 1 to 1000 | COc1cc(F)c([C@@H]2CC(=O)NC[C@H]2NC(=O)Nc2ccc(Cl)s2)c(F)c1 (racemic) [Example 51, rac-trans-1-(5-chlorothiophen-2-yl)-3-(4-(2,6-difluoro-4-methoxyphenyl)-6-oxopiperidin-3-yl)urea] |
| < 1 | 1 to 1000 | COc1cc(F)c([C@@H]2CC(=O)NC[C@H]2NC(=O)Nc2csc(Cl)c2)c(F)c1 (racemic) [Example 52, rac-trans-1-(5-Chloro-thiophen-3-yl)-3-[4-(2,6-difluoro-4-methoxy-phenyl)-6-oxo-piperidin-3-yl]-urea] |
| 1 to 1000 | 1 to 1000 | COc1cc(F)c([C@@H]2CC(=O)NC[C@H]2NC(=O)Nc2cc3ccccc3s2)c(F)c1 (racemic) [Example 53, rac-trans-1-(Benzo[b]thiophen-2-yl)-3-[4-(2,6-difluoro-4-methoxy-phenyl)-6-oxo-piperidin-3-yl]-urea] |
| < 1 | 1 to 1000 | COc1cc(F)c([C@@H]2CC(=O)NC[C@H]2NC(=O)Nc2ccc(Oc3ccccc3)cc2)c(F)c1 (racemic) [Example 54, rac-trans-1-[4-(2,6-Difluoro-4-methoxy-phenyl)-6-oxo-piperidin-3-yl]-3-(4-phenoxy-phenyl)-urea] |
| 1 to 1000 | 1 to 1000 | COc1cc(F)c([C@@H]2CC(=O)NC[C@H]2NC(=O)Nc2cc(C)ns2)c(F)c1 (racemic) [Example 55, rac-trans-1-[4-(2,6-Difluoro-4-methoxy-phenyl)-6-oxo-piperidin-3-yl]-3-(3-methyl-isothiazol-5-yl)-urea] |
| 1 to 1000 | 1 to 1000 | COc1cc(F)c([C@@H]2CC(=O)NC[C@H]2NC(=O)Nc2ncc(Cl)s2)c(F)c1 (racemic) [Example 56, rac-trans-1-(5-Chloro-thiazol-2-yl)-3-[4-(2,6-difluoro-4-methoxy-phenyl)-6-oxo-piperidin-3-yl]-urea] |
